Patent US20240158392A1 (Janssen Biotech, Inc., priority 2021, published 2024)

Biological target: SIK2 (Homo sapiens, UniProt Q9H0K1)
Assay: SIK2 Enzymatic Assay High Version 2 (High ATP)
Assay type: biochemical
Conditions: not given
Outline: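 At room temperature, enzyme (6 nM, 2× final) was preincubated with compound for 30 min, then 6 mM ATP and 400 μM HDAC5tide (both 2× final) were added for 2 h. ADP formed was measured by ADP-Glo Max (2 h reagent, 1 h detection) using luminescence.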

SIK2, sequence (Q9H0K1 whole entry, species assumed): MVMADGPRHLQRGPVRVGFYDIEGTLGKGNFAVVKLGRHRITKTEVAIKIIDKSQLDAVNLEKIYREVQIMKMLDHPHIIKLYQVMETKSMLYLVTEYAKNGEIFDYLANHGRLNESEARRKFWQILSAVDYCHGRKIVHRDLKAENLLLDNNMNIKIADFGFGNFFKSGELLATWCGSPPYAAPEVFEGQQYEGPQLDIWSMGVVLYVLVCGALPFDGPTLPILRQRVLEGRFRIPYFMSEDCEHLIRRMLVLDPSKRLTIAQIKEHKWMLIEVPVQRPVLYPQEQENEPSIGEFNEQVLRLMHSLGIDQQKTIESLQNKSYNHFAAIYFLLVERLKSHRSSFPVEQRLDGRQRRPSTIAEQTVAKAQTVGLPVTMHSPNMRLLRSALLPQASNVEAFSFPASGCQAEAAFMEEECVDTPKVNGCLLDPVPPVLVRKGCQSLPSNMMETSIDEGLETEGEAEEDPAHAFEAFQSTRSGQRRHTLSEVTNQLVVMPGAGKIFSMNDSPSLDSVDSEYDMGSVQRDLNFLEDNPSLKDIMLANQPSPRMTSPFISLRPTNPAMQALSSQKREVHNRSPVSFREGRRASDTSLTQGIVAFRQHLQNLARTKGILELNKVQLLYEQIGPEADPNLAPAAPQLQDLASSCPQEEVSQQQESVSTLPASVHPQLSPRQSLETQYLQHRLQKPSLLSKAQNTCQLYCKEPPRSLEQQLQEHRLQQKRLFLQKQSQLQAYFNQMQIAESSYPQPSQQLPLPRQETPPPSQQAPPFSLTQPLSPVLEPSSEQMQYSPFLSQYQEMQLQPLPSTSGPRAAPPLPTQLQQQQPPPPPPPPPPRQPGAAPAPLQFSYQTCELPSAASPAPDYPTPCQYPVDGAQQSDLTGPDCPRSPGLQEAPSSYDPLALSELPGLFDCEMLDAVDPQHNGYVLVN

Compound | IC50
CC#Cc1cc(-c2ccn3nc(Nc4ccn(C)n4)cc3c2)c(O[C@H]2C[C@H]3COC[C@@H](C2)N3)cn1 [Example 438, N-(1-methylpyrazol-3-yl)-5-[5-[[(1S,5R)-3-oxa-9-azabicyclo[3.3.1]nonan-7-yl]oxy]-2-prop-1-ynyl-4-pyridyl]pyrazolo[1,5-a]pyridin-2-amine] | 0.0102 µM
CC#Cc1cc(-c2ccn3nc(NC(=O)C4CC4)cc3c2)c(O[C@@H]2C[C@H]3COC[C@@H](C2)N3)cn1 [Example 439, N-[5-[5-[[(1S,5R)-3-oxa-9-azabicyclo[3.3.1]nonan-7-yl]oxy]-2-prop-1-ynyl-4-pyridyl]pyrazolo[1,5-a]pyridin-2-yl]cyclopropanecarboxamide] | 0.00103 µM
CCN1CC[C@@H]1COc1cnc(C)cc1-c1ccn2nc(NC(=O)C3CC3)cc2c1 [Example 451, N-[5-[5-[[(2R)-1-ethylazetidin-2-yl]methoxy]-2-methyl-4-pyridyl]pyrazolo[1,5-a]pyridin-2-yl]cyclopropanecarboxamide] | 0.0182 µM
Cc1cc(-c2ccn3nc(NC(=O)C4CC4)cc3c2)c(OC[C@H]2CCN2CC(F)(F)F)cn1 [Example 452, N-[5-[2-methyl-5-[[(2R)-1-(2,2,2-trifluoroethyl)azetidin-2-yl]methoxy]-4-pyridyl]pyrazolo[1,5-a]pyridin-2-yl]cyclopropanecarboxamide] | 0.015 µM
Cc1cc(-c2ccn3nc(NC(=O)C4CC4)cc3c2)c(O[C@H]2C[C@H]3COC[C@@H](C2)N3C)cn1 [Example 460, N-[5-[2-methyl-5-[[(1S,5R)-9-methyl-3-oxa-9-azabicyclo[3.3.1]nonan-7-yl]oxy]-4-pyridyl]pyrazolo[1,5-a]pyridin-2-yl]cyclopropanecarboxamide] | 0.0413 µM
[2H]C([2H])([2H])N1[C@@H]2COC[C@H]1C[C@@H](Oc1cnc(C)cc1-c1ccn3nc(NC(=O)C4CC4)cc3c1)C2 [Example 462, N-[5-[2-methyl-5-[[(1S,5R)-9-(trideuteriomethyl)-3-oxa-9-azabicyclo[3.3.1]nonan-7-yl]oxy]-4-pyridyl]pyrazolo[1,5-a]pyridin-2-yl]cyclopropanecarboxamide] | 0.00741 µM
Cc1cc(-c2ccn3nc(NC(=O)[C@@H]4C[C@H]4C)cc3c2)c(O[C@@H]2[C@@H]3CO[C@H]2CN3)cn1 [Example 463, (1R,2R)-2-methyl-N-[5-[2-methyl-5-[[(1S,4S,7R)-2-oxa-5-azabicyclo[2.2.1]heptan-7-yl]oxy]-4-pyridyl]pyrazolo[1,5-a]pyridin-2-yl]cyclopropanecarboxamide] | 0.0107 µM
Cc1cc(-c2ccn3nc(NC(=O)C4CC4)cc3c2)c(O[C@H]2C[C@@H](N)C2)cn1 [Example 464, N-(5-(5-((1s,3s)-3-aminocyclobutoxy)-2-methylpyridin-4-yl)pyrazolo[1,5-a]pyridin-2-yl)cyclopropanecarboxamide] | 0.0116 µM
Cc1cc(-c2ccn3nc(NC(=O)C4CC4)cc3c2)c(OC[C@H]2CCN2C)cn1 [Example 468, N-[5-[2-methyl-5-[[(2R)-1-methylazetidin-2-yl]methoxy]-4-pyridyl]pyrazolo[1,5-a]pyridin-2-yl]cyclopropanecarboxamide] | 0.00813 µM
Cc1cc(-c2ccn3nc(NC(=O)C4CC4)cc3c2)c(OC[C@H]2NCC2(C)C)cn1 [Example 471, N-[5-[5-[[(2S)-3,3-dimethylazetidin-2-yl]methoxy]-2-methyl-4-pyridyl]pyrazolo[1,5-a]pyridin-2-yl]cyclopropanecarboxamide] | 0.0277 µM
Cc1cc(-c2ccn3nc(NC(=O)C4CC4)cc3c2)c(OC[C@H]2N(C)CC2(C)C)cn1 [Example 473, N-[5-[2-methyl-5-[[(2S)-1,3,3-trimethylazetidin-2-yl]methoxy]-4-pyridyl]pyrazolo[1,5-a]pyridin-2-yl]cyclopropanecarboxamide] | 0.0182 µM
CC#Cc1ccc(O[C@H]2C[C@H]3COC[C@@H](C2)N3)c(-c2ccn3nc(NC(=O)C4CC4)cc3c2)c1 [Example 479, N-[5-[2-[[(1R,5S)-3-oxa-9-azabicyclo[3.3.1]nonan-7-yl]oxy]-5-prop-1-ynyl-phenyl]pyrazolo[1,5-a]pyridin-2-yl]cyclopropanecarboxamide] | 0.0371 µM
CCC(=O)c1ccc(O[C@H]2C[C@H]3COC[C@@H](C2)N3)c(-c2ccn3nc(NC(=O)C4CC4)cc3c2)c1 [Example 480, N-[5-[2-[[(1R,5S)-3-oxa-9-azabicyclo[3.3.1]nonan-7-yl]oxy]-5-propanoyl-phenyl]pyrazolo[1,5-a]pyridin-2-yl]cyclopropanecarboxamide] | < 0.000847 µM
O=C(Nc1cc2cc(-c3cc(C(F)F)ccc3O[C@H]3C[C@H]4COC[C@@H](C3)N4)ccn2n1)C1CC1 [Example 481, N-[5-[5-(difluoromethyl)-2-[[(1R,5S)-3-oxa-9-azabicyclo[3.3.1]nonan-7-yl]oxy]phenyl]pyrazolo[1,5-a]pyridin-2-yl]cyclopropanecarboxamide] | < 0.000847 µM
CN1[C@@H]2COC[C@H]1C[C@@H](Oc1ccc(C(F)F)cc1-c1ccn3nc(NC(=O)C4CC4)cc3c1)C2 [Example 482, N-[5-[5-(difluoromethyl)-2-[[(1R,5S)-9-methyl-3-oxa-9-azabicyclo[3.3.1]nonan-7-yl]oxy]phenyl]pyrazolo[1,5-a]pyridin-2-yl]cyclopropanecarboxamide] | 0.00424 µM
Cc1cc(-c2ccn3nc(Nc4cnccn4)cc3c2)c(O[C@H]2C[C@H]3COC[C@@H](C2)N3)nn1 [Example 486, 5-[6-methyl-3-[[(1S,5R)-3-oxa-9-azabicyclo[3.3.1]nonan-7-yl]oxy]pyridazin-4-yl]-N-pyrazin-2-yl-pyrazolo[1,5-a]pyridin-2-amine] | 0.0285 µM
O=C(Nc1cc2cc(-c3cc(Cl)ncc3O[C@@H]3C[C@H]4COC[C@@H](C3)N4)ccn2n1)C1CC1 [Example 492, N-[5-[2-chloro-5-[[(1S,5R)-3-oxa-9-azabicyclo[3.3.1]nonan-7-yl]oxy]-4-pyridyl]pyrazolo[1,5-a]pyridin-2-yl]cyclopropanecarboxamide] | 0.0516 µM

Same assay, conditions: enzyme 6 nM, 6 mM ATP and 400 μM HDAC5tide (each 2× final concentration); 30 minutes pre-incubation, 2 hours; ADP-Glo Max luminescence; read-out: SIK2 high ATP IC50 (μM) (Test Example 2)

Compound | IC50
CC#Cc1cc(-c2ccn3nc(Nc4ccn(C)n4)cc3c2)c(OCC2(F)CNC2)cn1 [Example 437, 5-[5-[(3-fluoroazetidin-3-yl)methoxy]-2-prop-1-ynyl-4-pyridyl]-N-(1-methylpyrazol-3-yl)pyrazolo[1,5-a]pyridin-2-amine] | < 0.000847 µM
CC#Cc1cc(-c2ccn3nc(NC(=O)C4CC4)cc3c2)c(OC[C@@H]2CNCCO2)cn1 [Example 443, N-[5-[5-[[(2S)-morpholin-2-yl]methoxy]-2-prop-1-ynyl-4-pyridyl]pyrazolo[1,5-a]pyridin-2-yl]cyclopropanecarboxamide] | 0.00436 µM
Cc1cc(-c2ccn3nc(NC(=O)C4CC4)cc3c2)c(OCC2CN(CCF)C2)cn1 [Example 457, N-[5-[5-[[1-(2-fluoroethyl)azetidin-3-yl]methoxy]-2-methyl-4-pyridyl]pyrazolo[1,5-a]pyridin-2-yl]cyclopropanecarboxamide] | 0.0298 µM
Cc1cc(-c2ccn3nc(NC(=O)C4CC4)cc3c2)c(O[C@H](CN)c2ccccc2)cn1 [Example 466, N-[5-[5-[(1S)-2-amino-1-phenyl-ethoxy]-2-methyl-4-pyridyl]pyrazolo[1,5-a]pyridin-2-yl]cyclopropanecarboxamide] | 0.00115 µM
Cc1cc(-c2ccn3nc(NC(=O)C4CC4)cc3c2)c(OCC2(c3ccccc3)CNC2)cn1 [Example 470, N-[5-[2-methyl-5-[(3-phenylazetidin-3-yl)methoxy]-4-pyridyl]pyrazolo[1,5-a]pyridin-2-yl]cyclopropanecarboxamide] | 0.00511 µM
Cc1cnc(OC[C@@H]2CNCCO2)c(-c2ccn3nc(NC(=O)C4CC4)cc3c2)c1 [Example 474, N-[5-[5-methyl-2-[[(2S)-morpholin-2-yl]methoxy]-3-pyridyl]pyrazolo[1,5-a]pyridin-2-yl]cyclopropanecarboxamide] | 0.0431 µM
N#Cc1ccc(OC[C@H]2CNCCO2)c(-c2ccn3nc(Nc4ccccn4)cc3c2)c1 [Example 478, 4-[[(2R)-morpholin-2-yl]methoxy]-3-[2-(2-pyridylamino)pyrazolo[1,5-a]pyridin-5-yl]benzonitrile] | < 0.000847 µM
Cc1cc(Nc2cc3cc(-c4cc(C#N)ccc4O[C@H]4CC[C@H](O)CC4)ccn3n2)nc(C)n1 [Example 483, 3-[2-[(2,6-dimethylpyrimidin-4-yl)amino]pyrazolo[1,5-a]pyridin-5-yl]-4-(4-hydroxycyclohexoxy)benzonitrile] | 0.0443 µM
Cc1cc(Nc2cc3cc(-c4cc(C#N)ccc4OCC(C)(C)O)ccn3n2)nc(C)n1 [Example 484, 3-[2-[(2,6-dimethylpyrimidin-4-yl)amino]pyrazolo[1,5-a]pyridin-5-yl]-4-(2-hydroxy-2-methyl-propoxy)benzonitrile] | 0.0571 µM
CN1CC(Oc2nnc(Cl)cc2-c2ccn3nc(NC(=O)C4CC4)cc3c2)C1 [Example 485, N-[5-[6-chloro-3-(1-methylazetidin-3-yl)oxy-pyridazin-4-yl]pyrazolo[1,5-a]pyridin-2-yl]cyclopropanecarboxamide] | < 0.000847 µM
CC(=O)O[C@H]1CC[C@H](Oc2nnc(C)cc2-c2ccn3nc(Nc4cc(C)nc(C)n4)cc3c2)CC1 [Example 487, [4-[4-[2-[(2,6-dimethylpyrimidin-4-yl)amino]pyrazolo[1,5-a]pyridin-5-yl]-6-methyl-pyridazin-3-yl]oxycyclohexyl] acetate] | 0.0238 µM
CN1CC(Oc2cnc(Cl)cc2-c2ccn3nc(NC(=O)C4CC4)cc3c2)C1 [Example 491, N-[5-[2-chloro-5-(1-methylazetidin-3-yl)oxy-4-pyridyl]pyrazolo[1,5-a]pyridin-2-yl]cyclopropanecarboxamide] | 0.0152 µM
Cc1cc(Nc2cc3cc(-c4cc(C(F)F)ncc4OCC(C)(C)O)ccn3n2)nc(C)n1 [Example 493, 1-[[6-(difluoromethyl)-4-[2-[(2,6-dimethylpyrimidin-4-yl)amino]pyrazolo[1,5-a]pyridin-5-yl]-3-pyridyl]oxy]-2-methyl-propan-2-ol] | 0.0662 µM
